Values belong to the molecule of their own block, whether it stands above or below them.
Assays:
[1] = test system: Plasmodium berghei ANKA strain; test: Survival rate of cerebral malaria model mice; type: in vivo, C57BL/6J mice; settings: nasal drip, four consecutive days, 28 days of observation
Text: (§1) Experimental study on the antimalarial activity of Artesunazine (Example Ia-1) in vitro and vivo. I. Protection of Artesunazine on mice infected by Plasmodium berghei ANKA strain. (I) Experimental materials: • 1. Animals: C57BL/6J, weighing 16-18 g, 10 in each group, 50 in total. • 2. Plasmodium strain: Plasmodium berghei ANKA strain, donated by Professor Zhao Ya of Air Force Medical University of the People's Liberation Army of China (The Fourth Military Medical University), was preserved in our laboratory by blood transmission or freezing. • 3. Drugs and preparation methods: Artesunazine and a positive control drug artesunate were dissolved in a mixed solvent of polyethylene glycol 400 (PEG400) and water (PEG400:water=4:1), serving as a preparation for immediate use. (II) Experimental methods • 1. Plasmodium resuscitation and passage: A Plasmodium berghei ANKA strain frozen in liquid nitrogen was taken out and placed in a water bath kettle at 37°C. After melting, it was immediately intraperitoneally inoculated into C57BL/6J mice (0.2 mL/mouse). When the infection rate of the breeding mice reached 15-30%, their eyeballs were removed and blood was collected in an anticoagulant tube. After shaking well, the blood was transmitted to offspring C57BL/6J mice with a 1 mL syringe at an injection dose of 0.2 mL/mouse. • 2. Plasmodium inoculation: C57BL/6J mice were weighed and fed adaptively. When the infection rate of offspring C57BL/6J mice reached 15-30%, the total number of red blood cells and the number of pRBCs were counted after their eyeballs were removed and blood was collected. The blood was injected intraperitoneally into model group C57BL/6J mice at an injection dose of 0.2 mL (including 1×10^7 pRBCs) per mouse, which was the 0th day (D0) of inoculation. • 3. Animal grouping: After inoculation, the experimental mice were randomly divided into 5 groups, including a model (M) group, high, medium and low dose Artesunazine groups (i.e., 40 mg/kg, 20 mg/kg, and 10 mg/kg Artesunazine), and an artesunate group (i.e., 15.6 mg/kg AS, clinically equivalent dose). The dosage of the medium dose Artesunazine group (20mg/kg Artesunazine) is equivalent to that of the artesunate group (15.6 mg/kg). There are 10 mice in each group, a total of 50 mice. • 4. Determination of survival rate From the 0th day of inoculation, the death of mice was observed every day for 28 consecutive days. Survival rate = (Number of surviving mice)/(Number of experimental mice) × 100% [formula] • 5. Determination of recurrence rate After inoculation, the mice were randomly divided into groups and administered via nasal drip for 3 h. […] The mouse recurrence rate was calculated by the ratio of the number of mice with recurrence to the total number of mice. […]

[2] = test system: Plasmodium berghei ANKA strain; test: Recurrence rate of cerebral malaria model mice (blood smear); type: in vivo, C57BL/6J mice
Text: Experimental study on the antimalarial activity of Artesunazine (Example Ia-1) in vitro and vivo. I. Protection of Artesunazine on mice infected by Plasmodium berghei ANKA strain. (I) Experimental materials: • 1. Animals: C57BL/6J, weighing 16-18 g, 10 in each group, 50 in total. • 2. Plasmodium strain: Plasmodium berghei ANKA strain, donated by Professor Zhao Ya of Air Force Medical University of the People's Liberation Army of China (The Fourth Military Medical University), was preserved in our laboratory by blood transmission or freezing. • 3. Drugs and preparation methods: Artesunazine and a positive control drug artesunate were dissolved in a mixed solvent of polyethylene glycol 400 (PEG400) and water (PEG400:water=4:1), serving as a preparation for immediate use. (II) Experimental methods • 1. Plasmodium resuscitation and passage: A Plasmodium berghei ANKA strain frozen in liquid nitrogen was taken out and placed in a water bath kettle at 37°C. After melting, it was immediately intraperitoneally inoculated into C57BL/6J mice (0.2 mL/mouse). When the infection rate of the breeding mice reached 15-30%, their eyeballs were removed and blood was collected in an anticoagulant tube. After shaking well, the blood was transmitted to offspring C57BL/6J mice with a 1 mL syringe at an injection dose of 0.2 mL/mouse. • 2. Plasmodium inoculation: C57BL/6J mice were weighed and fed adaptively. When the infection rate of offspring C57BL/6J mice reached 15-30%, the total number of red blood cells and the number of pRBCs were counted after their eyeballs were removed and blood was collected. The blood was injected intraperitoneally into model group C57BL/6J mice at an injection dose of 0.2 mL (including 1×10^7 pRBCs) per mouse, which was the 0th day (D0) of inoculation. • 3. Animal grouping: After inoculation, the experimental mice were randomly divided into 5 groups, including a model (M) group, high, medium and low dose Artesunazine groups (i.e., 40 mg/kg, 20 mg/kg, and 10 mg/kg Artesunazine), and an artesunate group (i.e., 15.6 mg/kg AS, clinically equivalent dose). The dosage of the medium dose Artesunazine group (20mg/kg Artesunazine) is equivalent to that of the artesunate group (15.6 mg/kg). There are 10 mice in each group, a total of 50 mice. • 4. Determination of survival rate From the 0th day of inoculation, the death of mice was observed every day for 28 consecutive days. Survival rate = (Number of surviving mice)/(Number of experimental mice) × 100% [formula] • 5. Determination of recurrence rate After inoculation, the mice were randomly divided into groups and administered via nasal drip for 3 h. After four consecutive days of administration, blood smear test began at D4. A small drop of blood was taken from the tail tip of a mouse and dropped onto a glass slide. The blood drop was pushed to one end at a certain angle with the edge of another glass slide to make a thin blood film with appropriate thickness. After the thin blood film was air-dried, it was fixed with methanol and placed until completely air-dried. After a Giemsa stain solution was diluted at a ratio of 1:9 for staining (completely covering the fixed thin blood film) for 20 min, the thin blood film was rinsed under a faucet, and the water on the surface of the film was quickly absorbed with filter paper. A drop of cedar oil was dropped onto a glass slide for examination under a 100x oil microscope to count the number of parasitized red blood cells contained in 1000 red blood cells. The mouse recurrence rate was calculated by the ratio of the number of mice with recurrence to the total number of mice. Recurrence rate = (Number of mice with recurrence)/(Number of experimental mice) × 100% [formula] • 6. RMCBS score determination A rapid mouse coma behavior scale (RMCBS) was used to evaluate the neurological function of experimental mice. […]

[3] = test system: Plasmodium berghei ANKA strain; test: Rapid mouse coma behavior scale (RMCBS) score of cerebral malaria model mice; type: in vivo, C57BL/6J mice
Text: as §1

[4] = test system: Plasmodium berghei ANKA strain; test: Anal temperature of cerebral malaria model mice; type: in vivo, C57BL/6J mice; settings: compared with the AS group (P<0.001)
Text: Experimental study on the antimalarial activity of Artesunazine (Example Ia-1) in vitro and vivo. I. Protection of Artesunazine on mice infected by Plasmodium berghei ANKA strain. (I) Experimental materials: • 1. Animals: C57BL/6J, weighing 16-18 g, 10 in each group, 50 in total. • 2. Plasmodium strain: Plasmodium berghei ANKA strain, donated by Professor Zhao Ya of Air Force Medical University of the People's Liberation Army of China (The Fourth Military Medical University), was preserved in our laboratory by blood transmission or freezing. • 3. Drugs and preparation methods: Artesunazine and a positive control drug artesunate were dissolved in a mixed solvent of polyethylene glycol 400 (PEG400) and water (PEG400:water=4:1), serving as a preparation for immediate use. (II) Experimental methods • 1. Plasmodium resuscitation and passage: A Plasmodium berghei ANKA strain frozen in liquid nitrogen was taken out and placed in a water bath kettle at 37°C. After melting, it was immediately intraperitoneally inoculated into C57BL/6J mice (0.2 mL/mouse). […] When the infection rate of offspring C57BL/6J mice reached 15-30%, the total number of red blood cells and the number of pRBCs were counted after their eyeballs were removed and blood was collected. […] The mouse recurrence rate was calculated by the ratio of the number of mice with recurrence to the total number of mice. […]

[5] = test system: Plasmodium berghei ANKA strain; test: Body weight of cerebral malaria model mice; type: in vivo, C57BL/6J mice
Text: as §1

[6] = test system: Plasmodium falciparum 3D7; test: SYBR Green assay, growth inhibition of Plasmodium falciparum cultured in vitro; type: cell-based; settings: Plasmodium falciparum standard strain 3D7, cultured for 72 h; read-out: IC50
Description: Plasmodium falciparum in the ring stage was synchronized. Smearing was carried out and the infection rate was counted. The synchronized parasitized red blood cells, healthy red blood cells and mediums were matched in a reasonable ratio, resulting in an in vitro culture system of plasmodia (ring bodies, 2 to 4 hours-old) with a hematocrit of 2% and an infection rate of 1%. […] A1-A10 was paved with 25 µl of drugs (with 8 complex wells for each drug) and mixed evenly, and then diluted in multiple proportions (Ax-Hx). Except for A12-H12, 50 µL of a plasmodium culture solution was spread in all the other wells; and A12-H12 was spread with 50 µl of healthy red blood cells (in the medium with a hematocrit of 2%). […] 100 µl of a lysis buffer was added to each of the wells and put into a drawer to avoid light for 1 h.
In this experiment, SYBR Green assay was used to determine the median inhibitory concentration (IC50) value of the drug for treating Plasmodium falciparum 3D7. Nonlinear regression was used to calculate the value by means of software graphpad prism 8.0 (the value was equal to average value plus or minus standard error), and a four-parameter logistic fitting curve was used. Each value in the curve was equal to average value plus or minus standard error in eight biological repetitive experiments.

[7] = 80% polyethylene glycol 400 solution, 40°C, dark
Description: 160.2 mg of Artesunazine was weighed and put into a penicillin bottle, 8 mL of a 80% polyethylene glycol 400 solution was added, and the Artesunazine was completely dissolved by ultrasonic treatment, resulting in about 20.25 mg/mL Artesunazine solution. Subsequently, the penicillin bottle filled with the solution was sealed, covered with aluminum foil paper for light avoidance treatment, and placed in a stability test box at 40°C; and 0.5 mL to 25 mL of the solution was sampled into volumetric flasks on days 0, 3, 7, and 10, respectively. After diluting with methanol and shaking well, the content of the Artesunazine was determined by an ultra performance liquid chromatography (UPLC) method.
The UPLC determination conditions for the Artesunazine are as follows: Instrument: ultra performance liquid chromatography Waters ACQUITY UPLC, chromatographic column: ACQUITY UPLC HSS T3 Column (100 Å, 1.8 µm, 2.1 mm×100 mm), detection wavelength: 295 nm, mobile phase: acetonitrile-0.1% phosphoric acid water (35:65), flow rate: 0.3 ml/min, column temperature: 30°C, sample room temperature: 25°C, injection volume: 3 µL. […]

Structure (SMILES): Cc1nc(C)c(COC(=O)CCC(=O)OC2OC3OC4(C)CCC5C(C)CCC(C2C)C35OO4)nc1C [Compound Ia-1, (3R, 5aS, 6R, 9R, 10R, 12R, 12aR)-3,6,9-trimethyldecahydro-12h-3, 12-epoxy [1, 2] dioxopyran [4,3-i] isobenzopyran-10-yl ((3,5,6-trimethylpyrazine-2-yl)methyl) succinate]
survival rate ([1]; 10 mg/kg Artesunazine (low dose)): 50%
survival rate ([1]; 20 mg/kg Artesunazine (medium dose)): 90%
survival rate ([1]; 40 mg/kg Artesunazine (high dose)): 100%
Recurrence rate (%) D4 ([2]; 10 mg/kg): 10%
Recurrence rate (%) D7 ([2]; 10 mg/kg, D7): 80%
Recurrence rate (%) D28 ([2]; 10 mg/kg): 100%
Recurrence rate (%) D4 ([2]; 20 mg/kg): 0%
Recurrence rate (%) D28 ([2]; 20 mg/kg): 10%
Recurrence rate (%) D4 ([2]; 40 mg/kg): 0%
Recurrence rate (%) D28 ([2]; 40 mg/kg): 10%
RMCBS score ([3]; 10 mg/kg): 18.40±0.48 points
RMCBS score ([3]; 20 mg/kg): around 20 points
RMCBS score ([3]; 40 mg/kg): around 20 points
temperature ([4]; 20 mg/kg): better maintained the temperature
temperature ([4]; 40 mg/kg): better maintained the temperature
body weight ([5]; 10 mg/kg, at the end of the observation): 16.66±0.45
body weight ([5]; 20 mg/kg, throughout the observation period): no significant decrease
body weight ([5]; 40 mg/kg, throughout the observation period): no significant decrease
IC50 [6]: 7.36 nM
color of the solution [7]: basically unchanged

Structure (SMILES): Cc1nc(C)c(COC(=O)CC(=O)OC2OC3OC4(C)CCC5C(C)CCC(C2C)C35OO4)nc1C [Compound Ia-2, (3R, 5aS, 6R, 9R, 10R, 12R, 12aR)-3,6,9-trimethyldecahydro-12h-3, 12-epoxy [1, 2] dioxopyran [4,3-i] isobenzopyran-10-yl ((3,5,6-trimethylpyrazine-2-yl)methyl) malonate]
IC50 [6]: 12.5 nM

Structure (SMILES): Cc1nc(C)c(COC(=O)CCCC(=O)OC2OC3OC4(C)CCC5C(C)CCC(C2C)C35OO4)nc1C [Compound Ia-4, (3R, 5aS, 6R, 9R, 10R, 12R, 12aR)-3,6,9-trimethyldecahydro-12h-3, 12-epoxy [1, 2] dioxopyran [4,3-i] isobenzopyran-10-yl ((3,5,6-trimethylpyrazine-2-yl)methyl) glutarate]
IC50 [6]: 33.9 nM

Second part, the molecule after the results:

IC50 [6]: 2.95 nM
Structure (SMILES): Cc1nc(C)c(COC(=O)CCCCCC(=O)OC2OC3OC4(C)CCC5C(C)CCC(C2C)C35OO4)nc1C [Compound Ia-5, (3R, 5aS, 6R, 9R, 10R, 12R, 12aR)-3,6,9-trimethyldecahydro-12h-3, 12-epoxy [1, 2] dioxopyran [4,3-i] isobenzopyran-10-yl ((3,5,6-trimethylpyrazine-2-yl)methyl) pimelate]

IC50 [6]: 14.3 nM
Structure (SMILES): Cc1nc(C)c(COC(=O)CCCCC(=O)OC2OC3OC4(C)CCC5C(C)CCC(C2C)C35OO4)nc1C [Compound Ia-6, (3R, 5aS, 6R, 9R, 10R, 12R, 12aR)-3,6,9-trimethyldecahydro-12h-3, 12-epoxy [1, 2] dioxopyran [4,3-i] isobenzopyran-10-yl ((3,5,6-trimethylpyrazine-2-yl)methyl) adipate]

IC50 [6]: 50.7 nM
Structure (SMILES): Cc1nc(C)c(COC(=O)CCCCCCC(=O)OC2OC3OC4(C)CCC5C(C)CCC(C2C)C35OO4)nc1C [Compound Ia-7, (3R, 5aS, 6R, 9R, 10R, 12R, 12aR)-3,6,9-trimethyldecahydro-12h-3, 12-epoxy [1, 2] dioxopyran [4,3-i] isobenzopyran-10-yl ((3,5,6-trimethylpyrazine-2-yl)methyl) suberate]

Source: patent EP4810498A1, “MEDICATION FOR TREATING SEVERE MALARIA AND SYNTHESIS METHOD THEREFOR” (Institute of Chinese Materia Medica, China Academy of …, priority 2023, dated 2025)
